Data from patent US20110313233A1, “DOWN-REGULATION OF COLD SHOCK PROTEINS FOR CANCER TREATMENT” (THE JOHNS HOPKINS UNIVERSITY, priority 2010, published 2011).

Tested on: LNCaP cells
Test: Western blotting of Cyclin B1, Cyclin D1, γ-H2A.X, phosph-p53, p21
Format: cell-based
Settings: scrambled siRNA controls
Description: Western blotting: Twenty-five micrograms of protein were separated on 10% to 20% SDS-PAGE and transferred onto PVD filters (Millipore, Bedford, Mass.). Membranes were incubated with primary antibodies overnight at 4° C. followed by horseradish peroxidase-conjugated secondary antibodies, and developed with the Super Signal West Dura Extended Duration Substrate kit (Pierce). RBM3 antibody was generated in a rabbit against as peptide (Sigma-Gneosys, The Woodlands, Tex.). HSPA1A and CIRBP antibodies were obtained from Lifespan Biosciences (ProteinTech Group, Chicago, Ill.), phospho-Histone H2A.X antibody was obtained from Millipore. Other antibodies were purchased from Cell Signaling (Danvers, Mass.) and Santa Cruz (Santa Cruz, Calif.)
Prostate cancer cells PC-3 (FIG. 12A) and LNCaP (FIG. 12B) were transfected with 100 nM RBM3 or CIRBP SMARTpool siRNA. Forty-eight hours after transfection, cells were treated with 4 μg/ml cDDP or 1 μg/ml ADM for 4 h, and then moved back to normal medium for another 16 h. Cell lysates were subjected to Western blotting to detect Cyclin B1, Cyclin D1, phosph-histone H2A.X (Ser139) (γ-H2A.X), phosph-p53 (Ser15), and p21. Actin was used as a control for protein loading.

Structure (SMILES) | activation of p53 by drug treatment
COc1cccc2c1C(=O)c1c(O)c3c(c(O)c1C2=O)C[C@@](O)(C(=O)CO)C[C@@H]3O[C@H]1C[C@H](N)[C@H](O)[C@H](C)O1 [ADM, adriamycin] | activated
[NH2][Pt]([NH2])([Cl])[Cl] [cDDP, cisplatin] | activated
